According to patent publication US20200000772A1, “CENICRIVIROC COMBINATION THERAPY FOR THE TREATMENT OF FIBROSIS” (Tobira Therapeutics, Inc., priority 2014, published 2020):

Experiments:
[1] = tested on: HIV-1 infected adult subjects; assay: Study 202 biomarkers of inflammation; assay type: in vivo, human
Description: As an exploratory analysis, levels of inflammation biomarkers MCP-1, sCD14, high sensitivity C-reactive protein [hs-CRP], interleukin-6 [IL-6], D-dimer, and fibrinogen) were measured. Baseline values and changes from baseline at Week 24 and Week 48 of MCP-1, sCD14, hs-CRP, IL-6, D-dimer, and fibrinogen are summarized in Table 22.
The sCD14 samples were originally analyzed in 2 separate batches: Batch 1 included samples leading up to the Week 24 primary analysis and Batch 2 included Week 32 and Week 48 (end of study) samples. A repeat analysis of archived samples all analyzed in one batch was conducted for consistency in analysis across time points. To control for the effects of covariates, a linear mixed-model repeated-measures analysis was conducted on the changes from baseline in sCD14 (analysis dated September 2013).

[2] = Chronic (3- and 9-month) monkey toxicity studies; assay type: in vivo
[3] = CVC plasma exposures, healthy volunteers vs HIV-infected subjects; assay type: in vivo, human; conditions: same dosing conditions; Studies 652-1-111, 652-1-110, 652-2-202
[4] = tested on: thioacetamide (TAA)-induced hepatic fibrosis; assay: Rat model of thioacetamide-induced liver fibrosis and cirrhosis; assay type: in vivo, Sprague-Dawley rats; conditions: first 8 weeks
Description: Fibrosis was induced in male Sprague-Dawley rats by intraperitoneal administration of TAA 150 mg/kg 3 times/week for 8 weeks. […] Biochemical, gene expression and histologic evaluations of the liver were conducted.

CCR5 = CCR5 (Homo sapiens, UniProt P51681); assay: CCR5 antagonism in in vitro, ex vivo and clinical studies; conditions: ex vivo, Studies 652-2-201 and 652-2-202
Sequence of CCR5 (P51681 whole entry): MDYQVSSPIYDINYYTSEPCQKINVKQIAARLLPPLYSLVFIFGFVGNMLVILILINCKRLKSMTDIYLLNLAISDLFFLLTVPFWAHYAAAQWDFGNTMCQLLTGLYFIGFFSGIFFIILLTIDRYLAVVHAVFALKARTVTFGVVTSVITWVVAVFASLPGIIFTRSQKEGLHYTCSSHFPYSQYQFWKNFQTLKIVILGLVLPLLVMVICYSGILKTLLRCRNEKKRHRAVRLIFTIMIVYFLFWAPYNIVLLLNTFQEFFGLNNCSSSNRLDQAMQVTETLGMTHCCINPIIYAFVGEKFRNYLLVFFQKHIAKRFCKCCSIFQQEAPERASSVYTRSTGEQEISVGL

[5] = tested on: STAM™ mouse model of Non-alcoholic Steatohepatitis; assay: STAM mouse model of NASH, Part 1: anti-NASH/fibrosis effects at week 9; assay type: in vivo, mice; conditions: for Body weight / Liver-to-body weight ratio / Collagen Type 1 mRNA expression level (liver, quantitative RT-PCR) / MCP-1 mRNA expression level (liver, quantitative RT-PCR) / TIMP-1 mRNA expression level (liver, quantitative RT-PCR): mean ± SD; for Collagen Type 1 mRNA expression level (liver, quantitative RT-PCR) / MCP-1 mRNA expression level (liver, quantitative RT-PCR) / TIMP-1 mRNA expression level (liver, quantitative RT-PCR): Vehicle 1.00
Description: NASH was induced in male mice by a single injection of 200 μg streptozotocin 2 days after birth (causing impaired glucose control), followed by a high fat diet from 4 weeks of age. […] Animals were sacrificed at 9 weeks of age, and biochemical, gene expression, and histologic evaluations of the liver were conducted. […] Group 2-Cenicriviroc 20 mg/kg (CVC-low): […] [table]

[6] = Mouse toxicity studies without surgical procedures; assay type: in vivo; conditions: CVC doses up to 2000 mg/kg/day
[7] = CVC-high 100 mg/kg/day, week 9, listed as Cenicriviroc
[8] = CVC-high 100 mg/kg/day, week 9, n = 6
[9] = CVC-low 20 mg/kg/day, week 9, listed as Cenicriviroc
[10] = CVC-low 20 mg/kg/day, week 9, n = 6

Which “hs-CRP Changes from baseline at Week 48, Mean” value ([1]; CVC 200 mg) does the source give for `CCCCOCCOc1ccc(-c2ccc3c(c2)/C=C(/C(=O)Nc2ccc([S@@+]([O-])Cc4cncn4CCC)cc2)CCCN3CC(C)C)cc1` [CVC, (S)-8-[4-(2-Butoxyethoxy)phenyl]-1-isobutyl-N-(4-{[(1-propyl-1H-imidazol-5-yl)methyl]sulfinyl}phenyl)-1,2,3,4-tetrahydro-1-benzazocine-5-carboxamide] here?
Its value is -0.18 mg/dL.

What about the “hs-CRP Changes from baseline at Week 48, Median” value ([1]; CVC 200 mg) of the same compound?
The value was -0.04 mg/dL.

And the “sCD14 Changes from baseline Week 32, Mean” value ([1]; CVC 200 mg, original values)?
The value was 20000 pg/mL.

And the “sCD14 Changes from baseline Week 32, Median” value ([1]; CVC 200 mg, original values)?
The value was -20000 pg/mL.

What about the “sCD14 Changes from baseline at Week 12, Median” value ([1]; CVC 200 mg, original values) of the same compound?
Its value is -210000 pg/mL.

What about the “sCD14 Changes from baseline at Week 24, Mean” value ([1]; CVC 200 mg, original values) of the same compound?
The value was -230000 pg/mL.

And the “sCD14 Changes from baseline at Week 24, Median” value ([1]; CVC 200 mg, original values)?
The value was -190000 pg/mL.

And the “sCD14 Changes from baseline at Week 48, Mean” value ([1]; CVC 200 mg, original values)?
The value was -40000 pg/mL.

And the “sCD14 Changes from baseline at Week 48, Median” value ([1]; CVC 200 mg, original values)?
The value was -40000 pg/mL.

And the “sCD14 over 48 weeks of treatment (linear mixed-model analysis of repeat sCD14 analysis)” value ([1]; both CVC treatment arms, EFV arm)?
The value was “decrease”.

And the “plasma MCP-1 levels, fold over controls” value ([2]; 1000 mg/kg/day, chronic (3- and 9-month) monkey toxicity studies)?
The value was roughly 5 fold.

What about the “indication of inflammation in clinical pathology parameters or any tissue incl. liver” value ([2]; high dose of 1000 mg/kg/day) of the same compound?
Its value is “No indication of inflammation”.

What about the “CVC plasma exposures in non-HIV infected healthy volunteers compared to HIV-infected subjects” value [3] of the same compound?
The value was “higher”.

And the “reduction of fibrosis by collagen morphometry” value ([4]; Group 1a: CVC 30 mg/kg/day concurrently with TAA)?
Its value is 49%.

And the “reduction of fibrosis by collagen morphometry” value ([4]; Group 1b: CVC 100 mg/kg/day concurrently with TAA)?
The value was 38%.

What about the “antagonism of CCR5” value (CCR5) of the same compound?
Its value is “potent and concentration-dependent antagonism”.

And the “collagen type 1 mRNA in whole liver lysates, decrease (real-time RT-PCR)” value ([5]; CVC treatment 20 and 100 mg/kg/day, 9 weeks of age)?
Its value is 27-37%.

And the Body weight ([5]; CVC-high 100 mg/kg/day, week 9)?
The Body weight was 18.7 ± 0.9 g.

What about the Liver-to-body weight ratio ([5]; CVC-high 100 mg/kg/day, week 9) of the same compound?
The Liver-to-body weight ratio was 7.0±0.8%.

And the “Collagen Type 1 mRNA expression level (liver, quantitative RT-PCR)” value (“Collagen Type 1 mRNA expression level” below) ([5]; CVC-high 100 mg/kg/day, week 9)?
The value was 0.73±0.04.

What about the “MCP-1 mRNA expression level (liver, quantitative RT-PCR)” value ([5]; CVC-high 100 mg/kg/day, week 9) of the same compound?
The value was 1.00±0.53.

What about the “TIMP-1 mRNA expression level (liver, quantitative RT-PCR)” value (“TIMP-1 mRNA expression level” for short) ([5]; CVC-high 100 mg/kg/day, week 9) of the same compound?
The value was 0.80±0.20.

And the “Collagen Type 1 mRNA expression level” value [5, 7]?
The value was 0.73 ± 0.04.

What about the “MCP-1 mRNA expression level (liver, quantitative RT-PCR)” value [5, 7] of the same compound?
The value was 1.00 ± 0.53.

And the “TIMP-1 mRNA expression level” value [5, 7]?
The value was 0.80 ± 0.20.

And the Body weight [5, 7]?
The Body weight was 18.7 ± 0.9 g.

What about the Liver-to-body weight ratio [5, 7] of the same compound?
Its Liver-to-body weight ratio is 7.0 ± 0.8%.

What about the “Hepatocyte ballooning score 0 (None), number of mice” value [5, 8] of the same compound?
The value was 1.

What about the “Hepatocyte ballooning score 1 (Few balloon cells), number of mice” value [5, 8] of the same compound?
The value was 2.

And the “Hepatocyte ballooning score 2 (Many cells/prominent ballooning), number of mice” value [5, 8]?
The value was 3.

And the “Lobular inflammation score 1 (<2 foci/200x), number of mice” value [5, 8]?
The value was 3.

And the “Lobular inflammation score 2 (2-4 foci/200x), number of mice” value [5, 8]?
Its value is 3.

What about the “Steatosis score 0 (<5%), number of mice” value [5, 8] of the same compound?
Its value is 1.

What about the “Steatosis score 1 (5-33%), number of mice” value [5, 8] of the same compound?
Its value is 5.

And the Body weight ([5]; CVC-low 20 mg/kg/day, week 9)?
The Body weight was 19.5 ± 2.0 g.

What about the Liver-to-body weight ratio ([5]; CVC-low 20 mg/kg/day, week 9) of the same compound?
Its Liver-to-body weight ratio is 6.9±1.0%.

What about the “Collagen Type 1 mRNA expression level” value ([5]; CVC-low 20 mg/kg/day, week 9) of the same compound?
The value was 0.63±0.10.

What about the “TIMP-1 mRNA expression level” value ([5]; CVC-low 20 mg/kg/day, week 9) of the same compound?
Its value is 0.75±0.32.

And the “Collagen Type 1 mRNA expression level” value [5, 9]?
The value was 0.63 ± 0.10.

What about the “TIMP-1 mRNA expression level” value [5, 9] of the same compound?
The value was 0.75 ± 0.32.

And the Body weight [5, 9]?
The Body weight was 19.5 ± 2.0 g.

What about the Liver-to-body weight ratio [5, 9] of the same compound?
The Liver-to-body weight ratio was 6.9 ± 1.0%.

And the “Hepatocyte ballooning score 1 (Few balloon cells), number of mice” value [5, 10]?
The value was 3.

What about the “Hepatocyte ballooning score 2 (Many cells/prominent ballooning), number of mice” value [5, 10] of the same compound?
The value was 3.

What about the “Lobular inflammation score 1 (<2 foci/200x), number of mice” value [5, 10] of the same compound?
Its value is 3.

And the “Lobular inflammation score 2 (2-4 foci/200x), number of mice” value [5, 10]?
Its value is 3.

And the “Steatosis score 1 (5-33%), number of mice” value [5, 10]?
Its value is 6.

What about the “general condition throughout the treatment period” value ([5]; CVC-low and CVC-high, until week 9) of the same compound?
Its value is “None of the animals in the present study showed deterioration in general condition”.

What about the tolerability [6] of the same compound?
Its tolerability is “well tolerated”.
